According to patent US20250230155A1 (Vanderbilt University, priority 2021, published 2025):

Molecular target: T1, human mAChR M4 (Homo sapiens, UniProt P08173)
T1 construct: expressed in transfected cells
T1 sequence (P08173 1-479): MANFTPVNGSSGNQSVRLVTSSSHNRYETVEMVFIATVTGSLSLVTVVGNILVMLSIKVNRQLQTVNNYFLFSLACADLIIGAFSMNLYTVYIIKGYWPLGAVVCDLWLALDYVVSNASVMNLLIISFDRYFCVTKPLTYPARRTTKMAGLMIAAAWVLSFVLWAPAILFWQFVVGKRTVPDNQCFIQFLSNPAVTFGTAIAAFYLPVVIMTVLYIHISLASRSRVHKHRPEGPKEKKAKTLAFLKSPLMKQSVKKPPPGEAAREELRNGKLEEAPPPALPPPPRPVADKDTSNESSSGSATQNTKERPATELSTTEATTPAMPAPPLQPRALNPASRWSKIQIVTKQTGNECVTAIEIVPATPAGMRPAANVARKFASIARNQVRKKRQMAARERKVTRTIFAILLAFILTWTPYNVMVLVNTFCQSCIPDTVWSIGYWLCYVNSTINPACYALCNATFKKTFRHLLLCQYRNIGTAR
Test: mAChR M4 cell-based functional assay (calcium mobilization, CHO-K1 hM4-Gqi5 cells)
Conditions: for Emax at 30 µM: CHO-K1, % ACh maximum at 30 μM, human M4; for EC50: positive allosteric modulator activity, increase in the EC20 acetylcholine response, CHO-K1 hM4-Gqi5 cells, read-out: Human M4 EC50
Summary of the method: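 CHO-K1 cells stably expressing human M4 with chimeric Gqi5, loaded with Fluo-4 AM; compounds given as 11-point 1:3 curves and calcium flux read on FDSS at 1 Hz. Acetylcholine EC20 added at 144 s, EC80 at 230 s; agonist, PAM (EC20 potentiation) and antagonist (EC80 inhibition) EC50/Emax from four-parameter fits.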

SMILES	Emax at 30 µM	EC50
Cc1cc(C(=O)NCC(C)(C)O)cnc1N1CCc2ncc(-c3cn(C)nc3C)cc2C1 [Example 461, 6-(3-(1,3-dimethyl-1H-pyrazol-4-yl)-7,8-dihydro-1,6-naphthyridin-6(5H)-yl)-N-(2-hydroxy-2-methylpropyl)-5-methylnicotinamide]	76%	4100 nM
Cc1cc(C(=O)NCc2ccc(Cl)nc2Cl)cnc1N1CCc2ncc(-c3cn(C)nc3C)cc2C1 [Example 462, N-((2,6-dichloropyridin-3-yl)methyl)-6-(3-(1,3-dimethyl-1H-pyrazol-4-yl)-7,8-dihydro-1,6-naphthyridin-6(5H)-yl)-5-methylnicotinamide]	72%	714 nM
Cc1c(C(=O)NCc2csc3ccccc23)nnc(N2CCc3ncc(C(F)(F)F)cc3C2)c1C [Example 463, N-(benzo[b]thiophen-3-ylmethyl)-4,5-dimethyl-6-(3-(trifluoromethyl)-7,8-dihydro-1,6-naphthyridin-6(5H)-yl)pyridazine-3-carboxamide]	101%	422 nM
Cc1c(C(=O)NCc2cncs2)nnc(N2CCc3ncc(C(F)(F)F)cc3C2)c1C [Example 465, 4,5-dimethyl-N-(thiazol-5-ylmethyl)-6-(3-(trifluoromethyl)-7,8-dihydro-1,6-naphthyridin-6(5H)-yl)pyridazine-3-carboxamide]	101%	44 nM
Cc1cc(C(=O)NCc2ccncc2)cnc1N1CCc2ncc(Nc3ccnn3C)cc2C1 [Example 473, 5-methyl-6-(3-((1-methyl-1H-pyrazol-5-yl)amino)-7,8-dihydro-1,6-naphthyridin-6(5H)-yl)-N-(pyridin-4-ylmethyl)nicotinamide]	87%	324 nM
Cc1cnccc1CNC(=O)c1cnc(N2CCc3ncc(Nc4ccnn4C)cc3C2)c(C)c1 [Example 474, 5-methyl-6-(3-((1-methyl-1H-pyrazol-5-yl)amino)-7,8-dihydro-1,6-naphthyridin-6(5H)-yl)-N-((3-methylpyridin-4-yl)methyl)nicotinamide]	89%	206 nM
Cc1cc(C(=O)NC2CC3(COC3)C2)cnc1N1CCc2ncc(-c3cn(C)nc3C)cc2C1 [Example 475, 6-(3-(1,3-dimethyl-1H-pyrazol-4-yl)-7,8-dihydro-1,6-naphthyridin-6(5H)-yl)-5-methyl-N-(2-oxaspiro[3.3]heptan-6-yl)nicotinamide]	64%	1740 nM
Cc1cc(C(=O)NC2CC(F)(F)C2)cnc1N1CCc2ncc(-c3cn(C)nc3C)cc2C1 [Example 476, N-(3,3-difluorocyclobutyl)-6-(3-(1,3-dimethyl-1H-pyrazol-4-yl)-7,8-dihydro-1,6-naphthyridin-6(5H)-yl)-5-methylnicotinamide]	67%	752 nM
Cc1cc(C(=O)NC23CC(F)(C2)C3)cnc1N1CCc2ncc(-c3cn(C)nc3C)cc2C1 [Example 477, 6-(3-(1,3-dimethyl-1H-pyrazol-4-yl)-7,8-dihydro-1,6-naphthyridin-6(5H)-yl)-N-(3-fluorobicyclo[1.1.1]pentan-1-yl)-5-methylnicotinamide]	80%	2470 nM
Cc1cc(C(=O)NCc2ccc(-n3ccnc3)nc2)cnc1N1CCc2ncc(-c3cn(C)nc3C)cc2C1 [Example 478, N-((6-(1H-imidazol-1-yl)pyridin-3-yl)methyl)-6-(3-(1,3-dimethyl-1H-pyrazol-4-yl)-7,8-dihydro-1,6-naphthyridin-6(5/)-yl)-5-methylnicotinamide]	50%	379 nM
Cc1cc(C(=O)NCc2ccc3ncnn3c2)cnc1N1CCc2ncc(-c3cn(C)nc3C)cc2C1 [Example 479, N-([1,2,4]triazolo[1,5-a]pyridin-6-ylmethyl)-6-(3-(1,3-dimethyl-1/- pyrazol-4-yl)-7,8-dihydro-1,6-naphthyridin-6(5H)-yl)-5-methylnicotinamide]	57%	886 nM
Cc1cc(C(=O)NCc2ccc(N3CCOCC3)nc2)cnc1N1CCc2ncc(-c3cn(C)nc3C)cc2C1 [Example 480, 6-(3-(1,3-dimethyl-1H-pyrazol-4-yl)-7,8-dihydro-1,6-naphthyridin-6(5H)-yl)-5-methyl-N-((6-morpholinopyridin-3-yl)methyl)nicotinamide]	76%	1390 nM
Cc1cc(C(=O)NCc2ccc(Cl)nc2)cnc1N1CCc2ncc(-c3cn(C)nc3C)cc2C1 [Example 481, N-((6-chloropyridin-3-yl)methyl)-6-(3-(1,3-dimethyl-1H-pyrazol-4-yl)-7,8-dihydro-1,6-naphthyridin-6(5H)-yl)-5-methylnicotinamide]	58%	1060 nM
Cc1cc(C(=O)NCc2ccncc2)cnc1N1CCc2ncc(-c3cn(C)nc3C)cc2C1 [Example 482, 6-(3-(1,3-dimethyl-1H-pyrazol-4-yl)-7,8-dihydro-1,6-naphthyridin-6(5H)-yl)-5-methyl-N-(pyridin-4-ylmethyl)nicotinamide]	78%	468 nM
Cc1cc(C(=O)NCc2ccncc2)cnc1N1CCc2ncc(-c3ccc(C4CC4)nc3)cc2C1 [Example 483, 6-(3-(6-cyclopropylpyridin-3-yl)-7,8-dihydro-1,6-naphthyridin-6(5H)-yl)-5-methyl-N-(pyridin-4-ylmethyl)nicotinamide]	84%	313 nM
Cc1cc(C(=O)NCc2cscn2)cnc1N1CCc2ncc(-c3ccc(C4CC4)nc3)cc2C1 [Example 484, 6-(3-(6-cyclopropylpyridin-3-yl)-7,8-dihydro-1,6-naphthyridin-6(5H)-yl)-5-methyl-N-(thiazol-4-ylmethyl)nicotinamide]	88%	176 nM
Cc1cc(C(=O)NCc2cncs2)cnc1N1CCc2ncc(-c3ccc(N(C)C)nc3)cc2C1 [Example 485, 6-(3-(6-(dimethylamino)pyridin-3-yl)-7,8-dihydro-1,6-naphthyridin-6(5H)-yl)-5-methyl-N-(thiazol-5-ylmethyl)nicotinamide]	79%	247 nM

Other lines, results leading:

Emax at 30 µM	EC50	SMILES
101%	36 nM	Cc1cnccc1CNC(=O)c1nnc(N2CCc3ncc(C(F)(F)F)cc3C2)c(C)c1C [Example 464, 4,5-dimethyl-N-((3-methylpyridin-4-yl)methyl)-6-(3-(trifluoromethyl)-7,8-dihydro-1,6-naphthyridin-6(5H)-yl)pyridazine-3-carboxamide]
98%	111 nM	Cc1c(C(=O)Nc2ccncc2)nnc(N2CCc3ncc(C(F)(F)F)cc3C2)c1C [Example 466, 4,5-dimethyl-N-(pyridin-4-yl)-6-(3-(trifluoromethyl)-7,8-dihydro-1,6-naphthyridin-6(5H)-yl)pyridazine-3-carboxamide]
98%	129 nM	Cc1c(C(=O)NCc2ccncc2)nnc(N2CCc3ncc(C(F)(F)F)cc3C2)c1C [Example 467, 4,5-dimethyl-N-(pyridin-4-ylmethyl)-6-(3-(trifluoromethyl)-7,8-dihydro-1,6-naphthyridin-6(5H)-yl)pyridazine-3-carboxamide]
108%	119 nM	Cc1cnc2c(c1)CN(c1nnc(C(=O)NCc3cncs3)c(C)c1C)CC2 [Example 468, 4,5-dimethyl-6-(3-methyl-7,8-dihydro-1,6-naphthyridin-6(5H)-yl)-N-(thiazol-5-ylmethyl)pyridazine-3-carboxamide]
98%	114 nM	Cc1cnc2c(c1)CN(c1nnc(C(=O)Nc3ccncc3)c(C)c1C)CC2 [Example 469, 4,5-dimethyl-6-(3-methyl-7,8-dihydro-1,6-naphthyridin-6(5H)-yl)-N-(pyridin-4-yl)pyridazine-3-carboxamide]
102%	278 nM	Cc1cnc2c(c1)CN(c1nnc(C(=O)NCc3csc4ccccc34)c(C)c1C)CC2 [Example 470, N-(benzo[b]thiophen-3-ylmethyl)-4,5-dimethyl-6-(3-methyl-7,8-dihydro-1,6-naphthyridin-6(5H)-yl)pyridazine-3-carboxamide]
91%	251 nM	Cc1cnc2c(c1)CN(c1nnc(C(=O)NCc3cnc4ccccc4c3)c(C)c1C)CC2 [Example 471, 4,5-dimethyl-6-(3-methyl-7,8-dihydro-1,6-naphthyridin-6(5H)-yl)-N-(quinolin-3-ylmethyl)pyridazine-3-carboxamide]
99%	71 nM	Cc1cnc2c(c1)CN(c1nnc(C(=O)NCc3ccncc3C)c(C)c1C)CC2 [Example 472, 4,5-dimethyl-6-(3-methyl-7,8-dihydro-1,6-naphthyridin-6(5H)-yl)-N-((3-methylpyridin-4-yl)methyl)pyridazine-3-carboxamide]
97%	286 nM	Cc1cnc2c(c1)CN(c1nnc(C(=O)NCc3ccncc3)c(C)c1C)CC2 [Example 486, 4,5-dimethyl-6-(3-methyl-7,8-dihydro-1,6-naphthyridin-6(5H)-yl)-N-(pyridin-4-ylmethyl)pyridazine-3-carboxamide]
